Assay results reported in patent publication US20230149336A1, “PREPARATION FOR USE AS ANTIOXIDANT” (Evonik Operations GmbH, priority 2020, published 2023).
Entries after “also recorded” stand apart in the source; their conditions may differ.

Legend:
mice mesenteric arteries [1] = test: Angiotensin II-induced ROS formation (DHE, DHR123); format: cell-based; conditions: 50 μg/mL for 1 hour, then Angiotensin II 15 minutes; DHE and DHR123; mixtures ratio 1:1
Procedure: Dihydroethidium (DHE, Life Technologies) was used to evaluate production of reactive oxygen species (ROS) in mouse mesenteric arteries, as previously described. Briefly, vessels were incubated with 5 μM of DHE for 20 min and subsequently observed under a fluorescence microscope (Zeiss). Images were acquired by a digital camera system (Olympus Soft Imaging Solutions). […] After treatment, vessels were incubated with Krebs solution containing 5 μM DHR123 for 30 min at 37° C., and then washed two times with PBS prior to fluorescence measurement using a fluorescence microplate reader (TECAN infinite 200 Pro).
To investigate the capability of Healthberry 865® and the single anthocyanins contained on the modulation of oxidative stress, several methodological approaches were performed measuring both, total anti reactive oxygen species (ROS) capacity and their specific action on the modulation of the main machinery of ROS production, the activity of NADPH oxidase enzyme. […] The antioxidant vascular actions of single anthocyanins contained in Healthberry 865®: Delphinidin-3-rutinoside (D3-rut), Cyanidin-3-rutinoside (C3-rut), Delphinidin glucoside (DP3-glu), Cyanidin-3-glucoside (C3-glu), Petunidin-3-glucoside (PT3-glu), Delphinidin galactoside (DP3-gal), Peonidin-3-galactoside (PEO3-gal), Delphinidin-3-arabinoside (DP3-ara), Malvidin-3-galactoside (MAL3-gal), Malvidin-3-glucoside (MAL3-glu), Cyanidin-3-galactoside (C3-gal) and Cyanidin-3-arabinopyranoside (C3-arapy) were analyzed.
(§1) Vessels were pre-treated with single anthocyanins (50 μg/mL) for 1 hours and then stimulated with Angiotensin II for 15 minutes prior to the acquisition. (A) Measurement of ROS production by DHR123 in vessels treated with single anthocyanins and combination of anthocyanins mixed with a ratio 1:1. (B) NADPH oxidase activity in mesenteric arteries exposed to HB or single anthocyanins or combination of anthocyanins mixed with a ratio 1:1. Data are expressed as increase of chemiluminescence per minute.

NADPH oxidase (NOX) = test: NADPH oxidase activity after stimulation with Angiotensin II; format: cell-based, mice; conditions: chemiluminescence per minute, mixtures ratio 1:1
Procedure: Moreover, the analysis of NADPH oxidase (NOX) activity after stimulation with Angiotensin II, a gold-standard inducer of NOX activation was performed.
as §1

mice mesenteric arteries [2] = test: Vascular reactivity: vasorelaxation of phenylephrine-precontracted mice mesenteric arteries; format: cell-based; conditions: increasing doses (5-300 μg/mL), phenylephrine-precontracted vessels
Procedure: Second-order branches of the mesenteric arterial tree were removed from mice to perform vascular studies. […] First, an analysis of vascular reactivity curves was performed.

Compound | Angiotensin II-induced ROS formation (mice mesenteric arteries [1]) | NADPH oxidase (NOX) activity (NADPH oxidase (NOX)) | vasorelaxant action (mice mesenteric arteries [2])
COc1cc(-c2[o+]c3cc(O)cc(O)c3cc2O[C@@H]2O[C@H](CO)[C@@H](O)[C@H](O)[C@H]2O)cc(OC)c1O [MAL3-glu, Malvidin-3-glucoside] | able to reproduce the antioxidant action of Healthberry 865® | able to reduce NOX activity; also recorded: the most powerful anthocyanins closer to the potent effect of Healthberry 865® | 
OC[C@H]1O[C@@H](Oc2cc3c(O)cc(O)cc3[o+]c2-c2cc(O)c(O)c(O)c2)[C@H](O)[C@@H](O)[C@@H]1O [DP3-glu, Delphinidin-3-glucoside] | able to reproduce the antioxidant action of Healthberry 865® | able to reduce NOX activity | 
COc1cc(-c2[o+]c3cc(O)cc(O)c3cc2O[C@@H]2O[C@H](CO)[C@H](O)[C@H](O)[C@H]2O)cc(OC)c1O [MAL3-gal, Malvidin-3-galactoside] | able to reproduce the antioxidant action of Healthberry 865® | able to reduce NOX activity | 
Peonidin-3-galactoside [PEO3-gal] | able to reproduce the antioxidant action of Healthberry 865® | able to reduce NOX activity | 
OC[C@H]1O[C@@H](Oc2cc3c(O)cc(O)cc3[o+]c2-c2ccc(O)c(O)c2)[C@H](O)[C@@H](O)[C@@H]1O [C3-glu, Cyanidin-3-glucoside] | able to reproduce the antioxidant action of Healthberry 865® | able to reduce NOX activity; also recorded: the most powerful anthocyanins closer to the potent effect of Healthberry 865® | 
C[C@@H]1O[C@@H](OC[C@H]2O[C@@H](Oc3cc4c(O)cc(O)cc4[o+]c3-c3ccc(O)c(O)c3)[C@H](O)[C@@H](O)[C@@H]2O)[C@H](O)[C@H](O)[C@H]1O [C3-rut, Cyanidin-3-rutinoside] | able to reproduce the antioxidant action of Healthberry 865® | able to reduce NOX activity | 
NCCCC[C@H](N)C(=O)O [L-Lysine] |  |  | did not evoke any vasorelaxant effect
